Laboratory results taken from PMC8813842 (Clinical Pharmacokinetics, 2021).
Entries after “also recorded” stand apart in the source; their conditions may differ.

Legend:
[1] = Population PK of allopurinol and oxypurinol in HIE neonates; type: in vivo, human; conditions: for Patients reaching the predefined AUC12 target: ALBINO study; for AUC: human, plasma, intravenous, 20 mg/kg; for Difference in CL between males and females: sex as covariate on CL; for Difference in CL between TH and non-TH patients: therapeutic hypothermia as categorical covariate on CL
xanthine oxidase (XO) = xanthine oxidase (XO) (Homo sapiens, UniProt P47989); conditions: in the first 24 h after birth
xanthine oxidase (XO), sequence (P47989 whole entry): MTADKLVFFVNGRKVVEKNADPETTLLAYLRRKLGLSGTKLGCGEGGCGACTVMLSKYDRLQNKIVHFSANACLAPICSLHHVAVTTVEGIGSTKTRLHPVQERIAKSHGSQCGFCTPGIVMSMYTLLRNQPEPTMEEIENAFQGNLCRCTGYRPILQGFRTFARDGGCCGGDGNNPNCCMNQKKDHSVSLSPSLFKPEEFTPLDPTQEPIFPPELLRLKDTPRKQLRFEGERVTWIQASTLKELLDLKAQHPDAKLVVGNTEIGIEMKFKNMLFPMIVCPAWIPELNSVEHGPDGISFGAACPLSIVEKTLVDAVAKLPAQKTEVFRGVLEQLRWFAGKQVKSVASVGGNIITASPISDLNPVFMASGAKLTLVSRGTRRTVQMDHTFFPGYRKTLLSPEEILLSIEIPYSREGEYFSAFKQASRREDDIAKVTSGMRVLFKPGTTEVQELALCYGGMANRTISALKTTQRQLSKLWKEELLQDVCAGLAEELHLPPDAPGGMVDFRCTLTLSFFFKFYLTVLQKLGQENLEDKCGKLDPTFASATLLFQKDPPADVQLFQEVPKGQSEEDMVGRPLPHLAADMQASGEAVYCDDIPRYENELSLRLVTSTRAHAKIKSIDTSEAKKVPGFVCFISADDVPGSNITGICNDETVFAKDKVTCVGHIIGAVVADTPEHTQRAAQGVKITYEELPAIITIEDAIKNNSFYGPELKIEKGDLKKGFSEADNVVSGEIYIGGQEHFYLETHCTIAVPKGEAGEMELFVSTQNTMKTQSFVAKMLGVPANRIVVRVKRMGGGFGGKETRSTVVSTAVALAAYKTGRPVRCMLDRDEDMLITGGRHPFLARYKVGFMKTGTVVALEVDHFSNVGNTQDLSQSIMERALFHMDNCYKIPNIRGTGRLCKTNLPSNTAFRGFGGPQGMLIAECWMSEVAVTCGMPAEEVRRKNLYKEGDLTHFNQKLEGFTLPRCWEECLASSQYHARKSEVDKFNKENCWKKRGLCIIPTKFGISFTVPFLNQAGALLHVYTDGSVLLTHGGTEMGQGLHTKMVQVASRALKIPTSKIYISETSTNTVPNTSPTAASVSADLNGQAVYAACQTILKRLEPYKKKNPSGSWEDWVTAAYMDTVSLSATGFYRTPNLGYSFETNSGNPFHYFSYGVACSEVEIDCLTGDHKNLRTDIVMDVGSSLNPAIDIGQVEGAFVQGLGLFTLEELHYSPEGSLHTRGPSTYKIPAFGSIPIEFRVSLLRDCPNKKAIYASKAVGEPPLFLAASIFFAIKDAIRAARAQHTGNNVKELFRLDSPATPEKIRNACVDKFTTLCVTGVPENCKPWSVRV

[2] = renal, URAT1 most important transporter; cited from earlier work

Row | Patients reaching the predefined AUC12 target ([1]; TH group) | Patients reaching the predefined AUC12 target ([1]; non-TH group) | AUC [1] | Difference in CL between males and females [1] | Decrease of estimated allopurinol CL due to autoinhibition (xanthine oxidase (XO)) | SMILES | Difference in CL between TH and non-TH patients [1] | Glomerular filtered oxypurinol actively reabsorbed [2]
1 | 92% | all patients reached the targets | 160000 ± 62600 ng·h/mL | No significant difference | 70% | Oc1ncnc2[nH]ncc12 [allopurinol] | No difference; also recorded: no significant differences; also recorded: not significantly different; also recorded: Clearances of allopurinol and oxypurinol were not significantly different between TH and non-TH patients | 
2 | 61% | all patients reached the targets | 37400 ± 12800 ng·h/mL | No significant difference |  | O=c1[nH]c(=O)c2c[nH]nc2[nH]1 [oxypurinol] | No difference; also recorded: no significant differences; also recorded: not significantly different; also recorded: Clearances of allopurinol and oxypurinol were not significantly different between TH and non-TH patients | approximately 80%
